Experimental data published in patent publication US20120016011A1, “RNA Interference Mediated Inhibition of Connective Tissue Growth Factor (CTGF) Gene Expression Using Short Interfering Nucleic Acid (siNA)” (Merck Sharp & Dohme Corp., priority 2009, published 2012).
[invAb] = inverted abasic unit; d = 2'-deoxy (DNA); m = 2'-O-methyl; r = 2'-OH (RNA); f = 2'-fluoro

Experiments:
CTGF mRNA [1] = experiment: CTGF mRNA knockdown (Taqman RT-PCR) after siNA transfection of human NHLF cells; assay type: cell-based; conditions: 10 nM siNA, 24 hrs, average of 3 experiments, vs non-targeting control
Experimental: NHLF (Normal human lung fibroblasts; Lonza cat# CC-2512): Cells were cultured at 37° C. in the presence of 5% CO2 and grown in Fibroblast Basal Medium (Lonza cat# CC-3132) supplemented with 2% FBS and growth factors (provided with the kit) and 100 μg/mL of streptomycin and 100 U/mL penicillin.
(§1) Cells were plated in all wells of a tissue-culture treated, 96-well plate at a final count of 5000 cells/well in […], of the appropriate culture media. The cells were cultured for 24 hours after plating at 37° C. in the presence of 5% CO2.
(§2) After 24 hours, complexes containing siNA and RNAiMax were created as follows: A solution of RNAiMax diluted 33-fold in OPTI-MEM was prepared. In parallel, solutions of the siNAs for testing were prepared to a final concentration of 120 nM in OPTI-MEM. After incubation of RNAiMax/OPTI-MEM solution at room temperature for 5 min, an equal volume of the siNA solution and the RNAiMax solution were added together for each of the siNAs.
(§3) This solution was incubated at room temperature for 20 minutes. After incubation, 20 uL of the solution was added to each of the relevant wells. The final concentration of siNA in each well was 10 nM and the final volume of RNAiMax in each well was 0.3 ul.
(§4) The time of incubation with the RNAiMax-siNA complexes was 24 hours and there was no change in media between transfection and harvesting, unless otherwise indicated.
(§5) RNA was extracted from a 96-well plate using the TaqMan® Gene Expression Cells-to-CT™ Kit (Cat# 4399002) with a modified protocol. Briefly, a 60 uL (1 plate) or 110 uL (2 plates) of the Lysis Solution with DNase I was dispensed into each well of the Lysis Buffer Plate (twin.tec full skirt plate). The lysis buffer and stop plates were stored at 4° C. until the cells were washed.
(§6) The plate was spun at 1100 rpm for 5 minutes. The culture medium was aspirated and discarded from the wells of the culture plate. The lysis was performed automatically using a BioMek FX instrument and method. After the Biomek method was completed, the lysis plate was incubated for 2 min. at room temperature. The lysis plate can be stored for 2 hours at 4° C., or at −20° C. or −80° C. for two months.
(§7) Each well of the reverse transcription plate required 10 uL of 2× reverse transcriptase Buffer, 1 uL of 20× reverse transcription enzyme and 2 uL of nuclease-free water. The reverse transcription master mix was prepared by mixing 2× reverse transcription buffer, 20× reverse transcription enzyme mix, and nuclease-free water. 13 uL of the reverse transcription master mix was dispensed into each well of the reverse transcription plate (semi-skirted). A separate reverse transcription plate was prepared for each cell plate. The plate was loaded onto a Biomek NX or Biomek FX Dual -96 and the Biomek method was run. The program is programmed to automatically added 7 uL of lysate from the cell lysis procedure described above into each well of the reverse transcription plate. The plate is sealed and spun on a centrifuge (1000 rpm for 30 seconds) to settle the contents to the bottom of the reverse transcription plate. The plate is placed in a thermocycler at 37° C. for 60 min, 95° C. for 5 min, and 4° C. until the plate is removed from the thermocycler. Upon removal, if not used immediately, the plate was frozen at −20° C.
(§8) A series of probes and primers were used to detect the various mRNA transcripts of the genes of β-Actin (human cell line only), and of CTGF and GAPDH in mouse and human cell lines. All Taqman probes and primers for the experiments here-in described were supplied as pre-validated sets by Applied Biosystems, Inc. (see Table 3).
The assays were performed on an ABI 7900 instrument, according to the manufacturer's instructions. A TaqMan Gene Expression Master Mix (provided in the Cells-to-CT™, Applied Biosystems, Cat # 4399002) was used. The PCR reactions were carried out at 50° C. for 2 min, 95° C. for 20 min followed by 40 cycles at 95° C. for 15 secs and 60° C. for 1 min. […]

CTGF mRNA [2] = experiment: CTGF mRNA knockdown (Taqman RT-PCR) after siNA transfection of mouse NIH 3T3 cells; assay type: cell-based; conditions: mouse NIH3T3 cells, 10 nM siNA, 24 hrs, average of 3 experiments, vs non-targeting control
Experimental: NIH 3T3 (mouse; ATCC cat# CRL-1658): Cells were cultured at 37° C. in the presence of 5% CO2 and grown in Dulbecco's modified Eagle's medium (DMEM) with 4 mM L-glutamine adjusted to contain 1.5 g/L sodium bicarbonate and 4.5 g/L glucose and supplemented with fetal bovine serum at a final concentration of 10%, 100 μg/mL of streptomycin, and 100 U/mL penicillin.
as §1, §2, §3, §4, §5, §6, §7, §8
The assays were performed on an ABI 7900 instrument, according to the manufacturer's instructions. A TaqMan Gene Expression Master Mix (provided in the Cells-to-CT™, Applied Biosystems, Cat # 4399002) was used. […]

| Substance | % KD Human (CTGF mRNA [1]) | % KD Mouse (CTGF mRNA [2]) |
| --- | --- | --- |
| 48070-DC: siNA duplex; sense SEQ ID NO: 105 B AcuGGuuucGAGAcAGuuu TTB; antisense SEQ ID NO: 106 AAAcuGucucGAAAccAGuUU (sense ACUGGUUUCGAGACAGUUUTT; antisense AAACUGUCUCGAAACCAGUUU; sense: DNA at AGT, 2'-fluoro at CU, [invAb] at 5' end, 3' end, backbone not given here; antisense: sugars from the 5' end rrrffmffffmmmmffmmfmm, backbone not given here) | 9 ± 21% | 56 ± 2% |
| 48041-DC: siNA duplex; sense SEQ ID NO: 47 B GAuucccAcccAAuucAAA TTB; antisense SEQ ID NO: 48 UUUGAAuuGGGuGGGAAucUU (sense GAUUCCCACCCAAUUCAAATT; antisense UUUGAAUUGGGUGGGAAUCUU; sense: DNA at AGT, 2'-fluoro at CU, [invAb] at 5' end, 3' end, backbone not given here; antisense: sugars from the 5' end rrrmmmffmmmfmmmmmffmm, backbone not given here) | 73±4% | 13 ± 3% |
| 48074-DC: siNA duplex; sense SEQ ID NO: 113 B GGAGGAAcuAucccAccAA TTB; antisense SEQ ID NO: 114 UUGGuGGGAuAGuuccuccUU (sense GGAGGAACUAUCCCACCAATT; antisense UUGGUGGGAUAGUUCCUCCUU; sense: DNA at AGT, 2'-fluoro at CU, [invAb] at 5' end, 3' end, backbone not given here; antisense: sugars from the 5' end rrrmfmmmmfmmfffffffmm, backbone not given here) | 3 ± 9% | 21 ± 2% |
| 48051-DC: siNA duplex; sense SEQ ID NO: 67 B GGGuGuGUGAcGAGcccAA TTB; antisense SEQ ID NO: 68 UUGGGcucGucAcAcAcccUU (sense GGGUGUGUGACGAGCCCAATT; antisense UUGGGCUCGUCACACACCCUU; sense: sugars from the 5' end dddfdfddddfdddfffdddd, [invAb] at 5' end, 3' end, backbone not given here; antisense: sugars from the 5' end rrrmmfffmffmfmfmfffmm, backbone not given here) | 15 ± 10% | 14 ± 11% |
| 48073-DC: siNA duplex; sense SEQ ID NO: 111 B GGAGAcAuGGcGuAAAGcc TTB; antisense SEQ ID NO: 112 GGCuuuAcGccAuGucuccUU (sense GGAGACAUGGCGUAAAGCCTT; antisense GGCUUUACGCCAUGUCUCCUU; sense: DNA at AGT, 2'-fluoro at CU, [invAb] at 5' end, 3' end, backbone not given here; antisense: sugars from the 5' end rrrfffmfmffmfmfffffmm, backbone not given here) | 7 ± 7% | 25 ± 8% |
| 48053-DC: siNA duplex; sense SEQ ID NO: 71 B cAGAGAGuGAGAGAcAuuA TTB; antisense SEQ ID NO: 72 UAAuGucucucAcucucuGUU (sense CAGAGAGUGAGAGACAUUATT; antisense UAAUGUCUCUCACUCUCUGUU; sense: DNA at AGT, 2'-fluoro at CU, [invAb] at 5' end, 3' end, backbone not given here; antisense: sugars from the 5' end rrrfmffffffmffffffmmm, backbone not given here) | 45 ± 7% | 26 ± 9% |
| 48060-DC: siNA duplex; sense SEQ ID NO: 85 B ucuGucAAccucAGAcAcu TTB; antisense SEQ ID NO: 86 AGUGucuGAGGuuGAcAGAUU (sense UCUGUCAACCUCAGACACUTT; antisense AGUGUCUGAGGUUGACAGAUU; sense: DNA at AGT, 2'-fluoro at CU, [invAb] at 5' end, 3' end, backbone not given here; antisense: sugars from the 5' end rrrmfffmmmmffmmfmmmmm, backbone not given here) | 64 ± 8% | 74 ± 3% |
| 48056-DC: siNA duplex; sense SEQ ID NO: 77 B cuGuGccuGccAuuAcAAc TTB; antisense SEQ ID NO: 78 GUUGuAAuGGcAGGcAcAGUU (sense CUGUGCCUGCCAUUACAACTT; antisense GUUGUAAUGGCAGGCACAGUU; sense: DNA at AGT, 2'-fluoro at CU, [invAb] at 5' end, 3' end, backbone not given here; antisense: sugars from the 5' end rrrmfmmfmmfmmmfmfmmmm, backbone not given here) | 6 ± 7% | 20 ± 6% |
| 48080-DC: siNA duplex; sense SEQ ID NO: 125 B AGGAAGAuGuAcGGAGAcA TTB; antisense SEQ ID NO: 126 UGUcuccGuAcAucuuccuUU (sense AGGAAGAUGUACGGAGACATT; antisense UGUCUCCGUACAUCUUCCUUU; sense: DNA at AGT, 2'-fluoro at CU, [invAb] at 5' end, 3' end, backbone not given here; antisense: sugars from the 5' end rrrffffmfmfmfffffffmm, backbone not given here) | 71 ± 2% | 56 ± 2% |
| 48044-DC: siNA duplex; sense SEQ ID NO: 53 B GuGuGcAccGccAAAGAuG TTB; antisense SEQ ID NO: 54 CAUcuuuGGcGGuGcAcAcUU (sense GUGUGCACCGCCAAAGAUGTT; antisense CAUCUUUGGCGGUGCACACUU; sense: DNA at AGT, 2'-fluoro at CU, [invAb] at 5' end, 3' end, backbone not given here; antisense: sugars from the 5' end rrrffffmmfmmfmfmfmfmm, backbone not given here) | −16 ± 8% | −18 ± 5% |
| 48059-DC: siNA duplex; sense SEQ ID NO: 83 B AcGAAcucAuuAGAcuAuA TTB; antisense SEQ ID NO: 84 UAUAGucuAAuGAGuucGuUU (sense ACGAACUCAUUAGACUAUATT; antisense UAUAGUCUAAUGAGUUCGUUU; sense: DNA at AGT, 2'-fluoro at CU, [invAb] at 5' end, 3' end, backbone not given here; antisense: sugars from the 5' end rrrmmfffmmfmmmfffmfmm, backbone not given here) | 25 ± 9% | 80 ± 4% |
